This is an account of results in patent publication US20250230193A1, “CYCLIC COMPOUND HAVING SELECTIVE KRAS INHIBITORY EFFECT ON HRAS AND NRAS” (CHUGAI SEIYAKU KABUSHIKI KAISHA, priority 2022, published 2025).

Assay [1] has as its target GDP-bound NRAS wild-type protein (Homo sapiens, UniProt P01111). Put plainly: Binding to NRAS by surface plasmon resonance (SPR), Single Cycle Kinetics. To be noted: KD ratio NRAS/KRAS, SPR, GDP-bound wild-type proteins.
In assay [2] the target is GDP-bound HRAS wild-type protein (Homo sapiens, UniProt P01112). Put plainly: Binding to HRAS by surface plasmon resonance (SPR), Single Cycle Kinetics. To be noted: KD ratio HRAS/KRAS, SPR, GDP-bound wild-type proteins. In general terms: In SPR one partner is held on a chip, and binding of the other changes the refractive index at the surface.
Sequence of GDP-bound HRAS wild-type protein (P01112 whole entry): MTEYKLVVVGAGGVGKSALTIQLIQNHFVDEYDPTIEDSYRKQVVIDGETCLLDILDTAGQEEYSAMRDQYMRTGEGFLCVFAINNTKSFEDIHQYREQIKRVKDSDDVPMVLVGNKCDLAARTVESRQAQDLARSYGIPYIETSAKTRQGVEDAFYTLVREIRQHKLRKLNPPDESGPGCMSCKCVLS

Sequence of GDP-bound NRAS wild-type protein (P01111 whole entry): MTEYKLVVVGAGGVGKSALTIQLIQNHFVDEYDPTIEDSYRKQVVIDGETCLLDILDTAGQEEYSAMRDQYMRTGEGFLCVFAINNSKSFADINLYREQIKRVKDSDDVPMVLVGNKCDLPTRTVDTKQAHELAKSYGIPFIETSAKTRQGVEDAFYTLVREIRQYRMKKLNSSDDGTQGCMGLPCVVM

`CCC[C@H]1C(=O)N[C@@H]([C@@H](C)CC)C(=O)N(C)CC(=O)N(C)[C@H]2C/C=C\CCN(C2=O)[C@@H](Cc2ccc(C(F)(F)F)cc2)C(=O)N(C)CC(=O)N[C@@H](CCc2ccc(C(F)(F)F)c(OC)c2)C(=O)N2C[C@H](OCC)C[C@H]2C(=O)N(C)C2(CCC2)C(=O)N(C)[C@@H](C2CCCC2)C(=O)N(C)[C@H](C(=O)N2CCCC2)CC(=O)N1C` [PP3105, (2S,8S,12R,14S,20S,23S,27S,30S,36S,38Z)-20-cyclopentyl-12-ethoxy-8-[2-[3-methoxy-4-(trifluoromethyl)phenyl]ethyl]-4,16,19,22,26,32,35-heptamethyl-30-[(1S)-1-methylpropyl]-27-propyl-23-(pyrrolidine-1-carbonyl)-2-[[4-(trifluoromethyl)phenyl]methyl]spiro[1,4,7,10,16,19,22,26,29,32,35-undecazatricyclo[34.5.1.0^10,14]dotetracont-38-ene-17,1′-cyclobutane]-3,6,9,15,18,21,25,28,31,34,42-undecone]: in assay [1], the “NRAS/KRAS (ratio of KD value with respect to GDP-bound NRAS wild-type protein to KD value with respect to KRAS)” value was “AA (a compound having 20 or more is denoted as AA)”. The “HRAS/KRAS (ratio of KD value with respect to GDP-bound HRAS wild-type protein to KD value with respect to KRAS)” value in assay [2] is “A (a compound having 10 or more and less than 20 is denoted as A)”.

In the case of `CCC[C@H]1C(=O)N[C@@H]([C@@H](C)CC)C(=O)N(C)CC(=O)N(C)[C@H]2C/C=C\CCN(C2=O)[C@@H](Cc2ccc(C)cc2)C(=O)N(C)CC(=O)N[C@@H](CCc2ccc(C(F)(F)F)c(OC)c2)C(=O)N2C[C@H](OCC)C[C@H]2C(=O)N(C)C2(CCC2)C(=O)N(C)[C@@H](C2CCCC2)C(=O)N(C)[C@H](C(=O)N2CCCC2)CC(=O)N1C` [PP3106, (2S,8S,12R,14S,20S,23S,27S,30S,36S,38Z)-20-cyclopentyl-12-ethoxy-8-[2-[3-methoxy-4-(trifluoromethyl)phenyl]ethyl]-4,16,19,22,26,32,35-heptamethyl-30-[(1S)-1-methylpropyl]-27-propyl-2-(p-tolylmethyl)-23-(pyrrolidine-1-carbonyl)spiro[1,4,7,10,16,19,22,26,29,32,35-undecazatricyclo[34.5.1.0^10,14]dotetracont-38-ene-17,1′-cyclobutane]-3,6,9,15,18,21,25,28,31,34,42-undecone], the “NRAS/KRAS (ratio of KD value with respect to GDP-bound NRAS wild-type protein to KD value with respect to KRAS)” value in assay [1] is “A (a compound having 10 or more and less than 20 is denoted as A)”. Also, in assay [2], the “HRAS/KRAS (ratio of KD value with respect to GDP-bound HRAS wild-type protein to KD value with respect to KRAS)” value is “A (a compound having 10 or more and less than 20 is denoted as A)”.

As for `CCC[C@H]1C(=O)N[C@@H]([C@@H](C)CC)C(=O)N(C2CC2)CC(=O)N(C)[C@H]2C/C=C\CCN(C2=O)[C@@H](Cc2ccc(C(F)(F)F)cc2)C(=O)N(C)CC(=O)N[C@@H](CCc2cc(F)c(C(F)(F)F)c(F)c2)C(=O)N2C[C@H](OCC)C[C@H]2C(=O)N(C)C2(CCC2)C(=O)N(C)[C@@H](C2CCCC2)C(=O)N(C)[C@H](C(=O)N2CCCCC2)CC(=O)N1C` [PP3110], in assay [1], the “NRAS/KRAS (ratio of KD value with respect to GDP-bound NRAS wild-type protein to KD value with respect to KRAS)” value was “A (a compound having 10 or more and less than 20 is denoted as A)”. Further, in assay [2], the “HRAS/KRAS (ratio of KD value with respect to GDP-bound HRAS wild-type protein to KD value with respect to KRAS)” value is “A (a compound having 10 or more and less than 20 is denoted as A)”.

In the case of `CCC[C@H]1C(=O)N[C@@H]([C@@H](C)CC)C(=O)N(C2CC2)CC(=O)N(C)[C@H]2C/C=C\CCN(C2=O)[C@@H](Cc2ccc(C(F)(F)F)cc2)C(=O)N(C)CC(=O)N[C@@H](CCc2cc(F)c(C(F)(F)F)c(F)c2)C(=O)N2C[C@H](OCC)C[C@H]2C(=O)N(C)C2(CCC2)C(=O)N(C)[C@@H](C2CCCC2)C(=O)N(C)[C@H](C(=O)N2CCCC2)CC(=O)N1C` [PP3112], the “NRAS/KRAS (ratio of KD value with respect to GDP-bound NRAS wild-type protein to KD value with respect to KRAS)” value in assay [1] was “A (a compound having 10 or more and less than 20 is denoted as A)”. In addition, the “HRAS/KRAS (ratio of KD value with respect to GDP-bound HRAS wild-type protein to KD value with respect to KRAS)” value in assay [2] is “B (a compound having 3 or more and less than 10 is denoted as B)”.

Consider `CCC[C@H]1C(=O)N[C@@H]([C@@H](C)CC)C(=O)N(C2CC2)CC(=O)N(C)[C@H]2C/C=C\CCN(C2=O)[C@@H](Cc2ccc(C)cc2)C(=O)N(C)CC(=O)N[C@@H](CCc2cc(F)c(C(F)(F)F)c(F)c2)C(=O)N2C[C@H](OCC)C[C@H]2C(=O)N(C)C2(CCC2)C(=O)N(C)[C@@H](C2CCCC2)C(=O)N(C)[C@H](C(=O)N2CCCC2)CC(=O)N1C` [PP3113, (2S,8S,12R,14S,20S,23S,27S,30S,36S,38Z)-20-cyclopentyl-32-cyclopropyl-8-[2-[3,5-difluoro-4-(trifluoromethyl)phenyl]ethyl]-12-ethoxy-4,16,19,22,26,35-hexamethyl-30-[(1S)-1-methylpropyl]-27-propyl-2-(p-tolylmethyl)-23-(pyrrolidine-1-carbonyl)spiro[1,4,7,10,16,19,22,26,29,32,35-undecazatricyclo[34.5.1.0^10,14]dotetracont-38-ene-17,1′-cyclobutane]-3,6,9,15,18,21,25,28,31,34,42-undecone], for which the “NRAS/KRAS (ratio of KD value with respect to GDP-bound NRAS wild-type protein to KD value with respect to KRAS)” value in assay [1] was “A (a compound having 10 or more and less than 20 is denoted as A)”. In assay [2], the “HRAS/KRAS (ratio of KD value with respect to GDP-bound HRAS wild-type protein to KD value with respect to KRAS)” value was “A (a compound having 10 or more and less than 20 is denoted as A)”.

In the case of `CCC[C@H]1C(=O)N[C@@H]([C@@H](C)CC)C(=O)N2CCC[C@H]2C(=O)N(C)[C@H]2C/C=C\CCN(C2=O)[C@@H](Cc2ccc(C(F)(F)F)cc2)C(=O)N(C)CC(=O)N[C@@H](CCc2cc(F)c(C(F)(F)F)c(F)c2)C(=O)N2C[C@H](OCC)C[C@H]2C(=O)N(C)C2(CCC2)C(=O)N(C)[C@@H](C2CCCC2)C(=O)N(C)[C@H](C(=O)N2CCCCC2)CC(=O)N1C` [PP3114], the “NRAS/KRAS (ratio of KD value with respect to GDP-bound NRAS wild-type protein to KD value with respect to KRAS)” value in assay [1] is “AA (a compound having 20 or more is denoted as AA)”. In addition, the “HRAS/KRAS (ratio of KD value with respect to GDP-bound HRAS wild-type protein to KD value with respect to KRAS)” value in assay [2] was “A (a compound having 10 or more and less than 20 is denoted as A)”.

For the compound `CCC[C@H]1C(=O)N[C@@H]([C@@H](C)CC)C(=O)N2CCC[C@H]2C(=O)N(C)[C@H]2C/C=C\CCN(C2=O)[C@@H](Cc2ccc(C)cc2)C(=O)N(C)CC(=O)N[C@@H](CCc2cc(F)c(C(F)(F)F)c(F)c2)C(=O)N2C[C@H](OCC)C[C@H]2C(=O)N(C)C2(CCC2)C(=O)N(C)[C@@H](C2CCCC2)C(=O)N(C)[C@H](C(=O)N2CCCCC2)CC(=O)N1C` [PP3115, (1S,4S,10S,13S,17S,20S,26S,28R,32S,38S,42Z)-20-cyclopentyl-32-[2-[3,5-difluoro-4-(trifluoromethyl)phenyl]ethyl]-28-ethoxy-2,14,18,21,24,36-hexamethyl-10-[(1S)-1-methylpropyl]-17-(piperidine-1-carbonyl)-13-propyl-38-(p-tolylmethyl)spiro[2,8,11,14,18,21,24,30,33,36,39-undecazatetracyclo[37.5.1.0^4,8.0^26,30]pentatetracont-42-ene-23,1′-cyclobutane]-3,9,12,15,19,22,25,31,34,37,45-undecone], in assay [1], the “NRAS/KRAS (ratio of KD value with respect to GDP-bound NRAS wild-type protein to KD value with respect to KRAS)” value is “A (a compound having 10 or more and less than 20 is denoted as A)”. Also, the “HRAS/KRAS (ratio of KD value with respect to GDP-bound HRAS wild-type protein to KD value with respect to KRAS)” value in assay [2] is “B (a compound having 3 or more and less than 10 is denoted as B)”.

For `CCC[C@H]1C(=O)N[C@@H]([C@@H](C)CC)C(=O)N2CCC[C@H]2C(=O)N(C)[C@H]2C/C=C\CCN(C2=O)[C@@H](Cc2ccc(C(F)(F)F)cc2)C(=O)N(C)CC(=O)N[C@@H](CCc2cc(F)c(C(F)(F)F)c(F)c2)C(=O)N2C[C@H](OCC)C[C@H]2C(=O)N(C)C2(CCC2)C(=O)N(C)[C@@H](C2CCCC2)C(=O)N(C)[C@H](C(=O)N2CCCC2)CC(=O)N1C` [PP3116], the “NRAS/KRAS (ratio of KD value with respect to GDP-bound NRAS wild-type protein to KD value with respect to KRAS)” value in assay [1] was “A (a compound having 10 or more and less than 20 is denoted as A)”. For the same compound, the “HRAS/KRAS (ratio of KD value with respect to GDP-bound HRAS wild-type protein to KD value with respect to KRAS)” value in assay [2] was “A (a compound having 10 or more and less than 20 is denoted as A)”.

With `CCC[C@H]1C(=O)N[C@@H]([C@@H](C)CC)C(=O)N2CCC[C@H]2C(=O)N(C)[C@H]2C/C=C\CCN(C2=O)[C@@H](Cc2ccc(C)cc2)C(=O)N(C)CC(=O)N[C@@H](CCc2cc(F)c(C(F)(F)F)c(F)c2)C(=O)N2C[C@H](OCC)C[C@H]2C(=O)N(C)C2(CCC2)C(=O)N(C)[C@@H](C2CCCC2)C(=O)N(C)[C@H](C(=O)N2CCCC2)CC(=O)N1C` [PP3117, (1S,4S,10S,13S,17S,20S,26S,28R,32S,38S,42Z)-20-cyclopentyl-32-[2-[3,5-difluoro-4-(trifluoromethyl)phenyl]ethyl]-28-ethoxy-2,14,18,21,24,36-hexamethyl-10-[(1S)-1-methylpropyl]-13-propyl-38-(p-tolylmethyl)-17-(pyrrolidine-1-carbonyl)spiro[2,8,11,14,18,21,24,30,33,36,39-undecazatetracyclo[37.5.1.0^4,8.0^26,30]pentatetracont-42-ene-23,1′-cyclobutane]-3,9,12,15,19,22,25,31,34,37,45-undecone], the “NRAS/KRAS (ratio of KD value with respect to GDP-bound NRAS wild-type protein to KD value with respect to KRAS)” value in assay [1] is “A (a compound having 10 or more and less than 20 is denoted as A)”. In addition, the “HRAS/KRAS (ratio of KD value with respect to GDP-bound HRAS wild-type protein to KD value with respect to KRAS)” value in assay [2] was “A (a compound having 10 or more and less than 20 is denoted as A)”.
